From patent US20160322588A1, “Organic Transistor, Compound, Organic Semiconductor Material for Non-Light-Emitting Organic Semiconductor Device, Material for Organic Transistor, Coating Solution for Non-Light-Emitting Organic Semiconductor Device, and Organic Semiconductor Film for Non-Light-Emitting Organic Semiconductor Device” (FUJIFILM Corporation, priority 2014, published 2016) come the findings set out here.

Where two headings read alike, the source gives them in different places.

The data set is described as follows: Solubility in toluene. It is filed as physicochemical. The settings on record: 20 mg mixed with toluene (1 mL). The source says:
B: Incompletely dissolved.

[1] abbreviates: organic solvent or mixture, thermodynamic from solid, read-out: Solubility.

For the compound `CCCCCCCCCCCCCCc1cc2sccc2c2sc3c(sc4c5ccsc5cc(CCCCCCCCCCCCCC)c43)c12` [Compound 40], the Solubility result was “A (Completely dissolved.)”.
Turning to `CCCC(C)n1ccc2c3sc4c5ccc6c(ccn6C(C)CCC)c5sc4c3ccc21` (centres unmarked) [compound 3, reference compound], the Solubility under setting [1] is below 20 mg/mL.
As to `CCCCCCCCCCCCc1cc2c(ccc3c2sc2c4ccc5sc(CCCCCCCCCCCC)cc5c4sc32)s1` [Compound 4], the Solubility entry was “A (Completely dissolved.)”.
`CCCCCCCCC#Cc1cc2c(ccc3c2sc2c4ccc5sc(C#CCCCCCCCC)cc5c4sc32)s1` [Compound 30]: the Solubility result is listed as “A (Completely dissolved.)”.
Take `CCCCCCCCCCCCc1cc2ccc3c(sc4c5ccc6cc(CCCCCCCCCCCC)sc6c5sc34)c2s1` [Compound 3]: the Solubility result was “A (Completely dissolved.)”.
Turning to `CC(C)CCCC(C)CCc1cc2ccc3c(sc4c5ccc6cc(CCC(C)CCCC(C)C)sc6c5sc34)c2s1` (centres unmarked) [Compound 5], under setting [1], the Solubility is above 20 mg/mL.
Turning to `CCCCCCCCOc1cc2ccc3c(sc4c5ccc6cc(OCCCCCCCC)sc6c5sc34)c2s1` [Compound 37], the Solubility entry is “A (Completely dissolved.)”.
With `Cn1ccc2c3sc4c5ccc6c(ccn6C)c5sc4c3ccc21` [compound 1, reference compound], under setting [1], the Solubility was below 20 mg/mL.
For the compound `CCCCCCCCc1cc2ccc3c(sc4c5ccc6ccsc6c5sc34)c2s1` [Compound 43], the Solubility result was “A (Completely dissolved.)”.
Regarding `c1cc2cc3sc4c5cc6sccc6cc5sc4c3cc2s1` [compound 4, reference compound], under setting [1], the Solubility was below 20 mg/mL.
For the compound `CCCCCCCCc1cc2c(ccc3c2sc2c4ccc5sc(CCCCCCCC)cc5c4sc32)s1` [Compound 2], the Solubility result is on record as “A (Completely dissolved.)”.
Same read-out and setting: next, `CCCCCCCCc1cc2ccc3c(sc4c5ccc6cc(CCCCCCCC)sc6c5sc34)c2s1` [Compound 1]: “A (Completely dissolved.)”.
Consider `CCc1cc2cc3c(cc2s1)sc1c2cc4cc(CC)sc4cc2sc31` [compound 2, reference compound], for which the Solubility under setting [1] is below 20 mg/mL.
In the case of `CCCCCCCCc1cc2c(ccc3c2sc2c4ccc5sccc5c4sc32)s1` [Compound 44], the Solubility entry is reported as “A (Completely dissolved.)”.
`CCCCCCCCOc1cc2c(ccc3c2sc2c4ccc5sc(OCCCCCCCC)cc5c4sc32)s1` [Compound 38]: the Solubility entry is given as “A (Completely dissolved.)”.
For the compound `CCCCCCCCCCCCCCc1cc2ccsc2c2sc3c(sc4c5sccc5cc(CCCCCCCCCCCCCC)c43)c12` [Compound 39], the Solubility entry is “A (Completely dissolved.)”.
The same measure, in the same setting: next, `CCCCCCCCC#Cc1cc2ccc3c(sc4c5ccc6cc(C#CCCCCCCCC)sc6c5sc34)c2s1` [Compound 29]: “A (Completely dissolved.)”.
